We go through one compound from patent US11939345B2, “Physiologically stable fluorophore and performing fluorescence probing” (Government of the United States of America, as represented …, priority 2019, dated 2024).

Each structure is given as a SMILES string.

Series [1] in a line: pH stability of fluorescence intensity. The following applies: Example 2; FIG. 22B. The format is physicochemical. On the procedure: With regard to assessment of photoluminescence properties of labeled CNF, photoluminescence excitation (PLE) spectroscopy maps and line scans were obtained with spectrofluorometer and corrected for the instrument's source spectral distribution and detector spectral response. Excitation wavelengths were scanned in 5 nm increments using a 450 W xenon lamp through a 2 nm slit. Emitted light was collected at 90° and measured using a liquid N2-cooled InGaAs detector over 2 nm increments through a 2 nm slit. The fluorescence emission spectra of mDTEB-CNF and mDTEB-seCNF were created using an excitation wavelength (λEx) of 514 nm with emission wavelengths from 530 nm to 650 nm. […] The pH stability of mDTEB-CNF and mDTEB-seCNF were evaluated by measuring fluorescence intensity using a Nanolog-3 spectrofluorometer. Buffered solutions containing 0.5 mg/mL labeled CNF in the range of pH 2 to 10 were equilibrated to 37° C., and the fluorescence intensity was measured at λEm 540 nm. […] The photoluminescence spectra of autoclaved washed fibers, the collected supernatants, and the controls were recorded using the spectrofluorometer as described above. The concentration-dependence of the labeled CNF fluorescence was assessed by measuring the fluorescence intensity of labeled CNF diluted to concentrations between 2 μg/mL and 2 mg/mL using PBS buffer or deionized water. […]

Series [2] is described as follows: Photoluminescence excitation/emission and absorption spectra. It counts as physicochemical. On the procedure:
With regard to assessment of photoluminescence properties of labeled CNF, photoluminescence excitation (PLE) spectroscopy maps and line scans were obtained with spectrofluorometer and corrected for the instrument's source spectral distribution and detector spectral response. Excitation wavelengths were scanned in 5 nm increments using a 450 W xenon lamp through a 2 nm slit. Emitted light was collected at 90° and measured using a liquid N2-cooled InGaAs detector over 2 nm increments through a 2 nm slit. The fluorescence emission spectra of mDTEB-CNF and mDTEB-seCNF were created using an excitation wavelength (λEx) of 514 nm with emission wavelengths from 530 nm to 650 nm. An excitation plot was created with an emission wavelength (λEm) of 540 nm with excitation wavelengths from 400 nm to 530 nm. The UV-Vis absorption spectra were collected with a UV-Vis-NIR spectrophotometer. The pH stability of mDTEB-CNF and mDTEB-seCNF were evaluated by measuring fluorescence intensity using a Nanolog-3 spectrofluorometer. Buffered solutions containing 0.5 mg/mL labeled CNF in the range of pH 2 to 10 were equilibrated to 37° C., and the fluorescence intensity was measured at λEm 540 nm. […] The photoluminescence spectra of autoclaved washed fibers, the collected supernatants, and the controls were recorded using the spectrofluorometer as described above. The concentration-dependence of the labeled CNF fluorescence was assessed by measuring the fluorescence intensity of labeled CNF diluted to concentrations between 2 μg/mL and 2 mg/mL using PBS buffer or deionized water. Fluorescence intensity was recorded on a multimode microplate reader equipped with monochromator optics at λEx 514 nm and λEm 540 nm. […] Each suspension was measured in triplicate using 200 μL samples. […] For fluorescence images, dilute labeled CNF suspensions were deposited onto an ultraviolet ozone (UVO)-treated glass slides and dried at room temperature. […]
Photoluminescence properties (excitation and emission spectra) of the mDTEB dye and mDTEB-seCNF were recorded using fluorescence spectroscopy. […]

On to `CCC1=C(C)C2=C(c3ccc(Oc4nc(Cl)nc(Cl)n4)cc3)c3c(C)c(CC)c(C)n3[B-](F)(F)[N+]2=C1C` [mDTEB, 10-(4-((4,6-dichloro-1,3,5-triazin-2-yl)oxy)phenyl)-2,8-diethyl-5,5-difluoro-1,3,7,9-tetramethyl-5H-414,514-dipyrrolo[1,2-c:2′,1′-f] [1,3,2]diazaborinine], for which the “emission intensity as a function of pH” value in series [1] was “stable to a wide range of pH values”. The Stokes shift in series [2] was 36 nm. The compound further had an absorbance peak in series [2] (FIG. 22A, in water) of 514 nm. For the same compound, the “maximum emission intensity wavelength / emission peak” value in series [2] (fluorescence spectroscopy) is recorded as 540 nm.
